One assay concerns the target PKC-α (Homo sapiens, UniProt P17252). The conditions noted are these: reported in reference [74]; cited from earlier work.
For the next assay, the target named is PKC-δ (Homo sapiens, UniProt Q05655). The settings on record: reported in reference [74]; cited from earlier work.
In the next assay the target is EGF-R (Homo sapiens, UniProt P00533). The conditions noted are these: reported in reference [74]; cited from earlier work.
For the next assay, the system named is A2780. Description: MTT cytotoxicity assay, A2780. It counts as cell-based. The conditions noted are these: Homo sapiens, after incubation. On the procedure: (§1) The compounds of the invention were subjected to a standard cellular proliferation assay using human tumour cell lines obtained from the ATCC (American Type Culture Collection, 10801 University Boulevard, Manessas, Va. 20110-2209, USA). […] C.; Thomas, D. G.; Darling, J. L. Anti Cancer Drugs 1996, 7, 331-8; Loveland, B. E.; Johns, T. G.; Mackay, 1. R.; Vaillant, F.; Wang, Z. X.; Hertzog, P. J. Biochemistry International 1992, 27, 501-10). In short: cells were seeded into 96-well plates according to doubling time and incubated overnight at 37° C. […] MTT was made up as a stock of 5 mg/mL in cell media and filter-sterilised. Media was removed from cells followed by a wash with 200 μL PBS. MTT solution was then added at 20 μL per well and incubated in the dark at 37° C. for 4 h MTT solution was removed and cells again washed with 200 μL PBS. MTT dye was solubilised with 200 μL per well of DMSO with agitation. Absorbance was read at 540 nm and data analysed using curve-fitting software (GraphPad Prism version 3.00 for Windows, GrapbPad Software, San Diego Calif. USA) to determine IC50 values (concentration of test compound which inhibits cell growth by 50%).

A further assay has as its target T1, aurora-A (Homo sapiens, UniProt O14965).
T1 construct: purchased Upstate, Dundee, UK
T1 sequence (O14965 1-403): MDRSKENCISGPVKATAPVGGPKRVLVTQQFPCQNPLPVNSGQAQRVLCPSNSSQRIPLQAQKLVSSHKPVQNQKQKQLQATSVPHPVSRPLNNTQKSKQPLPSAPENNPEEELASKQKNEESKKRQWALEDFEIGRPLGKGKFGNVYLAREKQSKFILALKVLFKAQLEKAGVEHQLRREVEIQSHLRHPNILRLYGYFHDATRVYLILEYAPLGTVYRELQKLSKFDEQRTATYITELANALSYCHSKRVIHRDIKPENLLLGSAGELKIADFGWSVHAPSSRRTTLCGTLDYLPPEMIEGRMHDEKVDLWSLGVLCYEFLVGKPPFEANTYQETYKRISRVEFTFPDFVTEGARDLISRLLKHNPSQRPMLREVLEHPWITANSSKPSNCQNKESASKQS
Nature of the assay: Aurora-A (human) kinase assay. In kind it is biochemical. The settings on record: Table 3, values without asterisk; read-out: Kinase inhibition Aurora A. On the procedure:
(§2) This was achieved by measurement of incorporation of radioactive phosphate from ATP into Kemptide substrate (LRRASLG), upon phosphorylation by commercially obtained aurora-A (human, Upstate, Dundee, UK). Assays were performed using 96-well plates and appropriate assay buffers (20 mM Tris, 25 mM β-glycerophosphate, 5 mM EGTA, 1 mM DTT, 1 mM sodium vanadate, pH 7.5), into which were added 2-5 ng of active enzyme with 500 μM substrate (Kemptide). The reactions were initiated by addition of MgATP mix (15 mM MgCl2+100 μM ATP with 15-25 kBq per well of [γ-^32P]-ATP) and mixtures incubated for 30 min at 30° C. Reactions were stopped by addition of an equal volume of 75 mM aq orthophosphoric acid, followed by filtration through p81 filterplates (Whatman Polyfiltronics, Kent, UK). After washing 4 times with 75 mM aq orthophosphoric acid, plates were dried, scintillant added and incorporated radioactivity measured in a scintillation counter (TopCount, Packard Instruments, Pangbourne, Berks, UK). Compounds for kinase assay were made up as 10 mM stocks in DMSO and diluted into 10% DMSO in assay buffer. Data was analysed using curve-fitting software (XLfit version 4.0.2, IDBS, Guildford, Surrey, UK) to determine IC50 values (concentration of test compound which inhibits kinase activity by 50%).

The next assay relates to Mia-PaCa-2. Description: MTT cytotoxicity assay, Mia-PaCa-2. It counts as cell-based. The conditions noted are these: Homo sapiens, after incubation. On the procedure:
as §1
(In general: Tetrazolium assays rely on reduction of a dye to a coloured formazan, in cell work by metabolically active cells.)

Another assay concerns the target T2, aurora-B (Homo sapiens, UniProt Q96GD4).
T2 construct: purchased Upstate, Dundee, UK
Description: Aurora-B (human) kinase assay. It counts as biochemical. The settings on record: Table 3; read-out: Kinase inhibition Aurora B. On the procedure: as §2, with “obtained aurora-B” for “obtained aurora-A”, “added 75” for “added 2-5”, “of pre-activated” for “of active”, “for 60” for “for 30”
Aurora-B (human, Upstate, Dundee, UK) was pre-activated immediately prior to kinase assay in appropriate buffers (20 mM Tris, 25 mM β-glycerophosphate, 5 mM EGTA, 1 mM DTT, 1 mM sodium vanadate, pH 7.5) by incubating 15 μg of enzyme with 4 μg INCENP (Upstate, Dundee, UK) in the presence of MgATP mix (15 mM MgCl2+100 μM ATP) for 15 min at 30° C.

The next assay has as its target CDK7/cyclin H (Homo sapiens, UniProt P50613). Nature of the assay: CDK 7 assay. In kind it is biochemical. The settings on record: Table 3; read-out: Kinase inhibition CDK7H. On the procedure: CTD peptide substrate (biotinyl-Ahx-(Tyr-Ser-Pro-Thr-Ser-Pro-Ser)4-NH2; 1-2 mg/mL) and recombinant human CDK7/cyclin H, CDK9/cyclin TI, or CDK9/cyclin K (0.5-2 μg) were incubated for 45 min at 30° C. in the presence of varying amounts of test compound in 20 mM MOPS pH 7.2, 25 mM β-glycerophosphate, 5 mM EGTA, 1 mM DTT, 1 mM sodium vanadate, 15 mM MgCl2, and 100 μM ATP (containing a trace amount of ^32PγATP) in a total volume of 25 μL in a 96-well microtiter plate. The reaction was stopped by placing the plate on ice for 2 min. Avidin (50 μg) was added to each well, and the plate was incubated at room temp for 30 min. The samples were transferred to a 96-well P81 filter plate, and washed (4×200 μL per well) with 75 mM phosphoric acid. Microscint 40 scintillation liquid (50 μL) was added to each well, and the amount of ^32P incorporation for each sample was measured using a Packard Topcount microplate scintillation counter.

Another assay concerns the target T3, Flt-3 (Homo sapiens, UniProt P36888).
T3 construct: purchased Upstate, Dundee, UK
T3 sequence (P36888 564-993 limits assumed): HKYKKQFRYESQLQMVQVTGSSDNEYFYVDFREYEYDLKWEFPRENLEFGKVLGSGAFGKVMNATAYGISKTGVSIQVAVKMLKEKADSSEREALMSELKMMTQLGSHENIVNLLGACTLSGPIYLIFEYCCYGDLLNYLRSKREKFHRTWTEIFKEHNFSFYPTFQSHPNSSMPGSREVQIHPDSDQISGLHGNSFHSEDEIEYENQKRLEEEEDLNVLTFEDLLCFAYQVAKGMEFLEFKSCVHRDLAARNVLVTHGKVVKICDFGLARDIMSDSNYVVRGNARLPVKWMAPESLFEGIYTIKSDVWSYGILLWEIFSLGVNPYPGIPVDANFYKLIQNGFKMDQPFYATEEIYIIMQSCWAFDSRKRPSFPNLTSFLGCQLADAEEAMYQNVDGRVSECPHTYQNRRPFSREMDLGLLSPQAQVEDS
Description: Flt3 kinase assay. It counts as biochemical. The settings on record: Table 3; read-out: Kinase inhibition Flt3. On the procedure:
as §2, with “myelin basic protein (MBP) substrate,” for “Kemptide substrate (LRRASLG),”, “Flt-3” for “aurora-A (human,”, “5” for “2-5”, “0.4 mg/ml” for “500 μM”, “(MBP).” for “(Kemptide).”

A further assay deals with CDK2/cyclin E (Homo sapiens, UniProt P24941). Nature of the assay: Kinase assay CDK2/cyclin E. In kind it is biochemical. The conditions noted are these: Table 3; read-out: Kinase inhibition CDK2E. On the procedure: The compounds from the examples above were investigated for their ability to inhibit the enzymatic activity of various protein kinases. This was achieved by measurement of incorporation of radioactive phosphate from ATP into appropriate polypeptide substrates. Recombinant protein kinases and kinase complexes were produced or obtained commercially. Assays were performed using 96-well plates and appropriate assay buffers (typically 25 mM β-glycerophosphate, 20 mM MOPS, 5 mM EGTA, 1 mM DTT, 1 mM […], pH 7.4), into which were added 2-4 μg of active enzyme with appropriate substrates. The reactions were initiated by addition of Mg/ATP mix (15 mM MgCl2+100 μM ATP with 30-50 kBq per well of [γ-^32P]-ATP) and mixtures incubated as required at 30° C. Reactions were stopped on ice, followed by filtration through p81 filterplates or GF/C filterplates (Whatman Polyfiltronics, Kent, UK). After washing 3 times with 75 mM aq orthophosphoric acid, plates were dried, scintillant added and incorporated radioactivity measured in a scintillation counter (TopCount, Packard Instruments, Pangbourne, Berks, UK). Compounds for kinase assay were made up as 10 mM stocks in DMSO and diluted into 10% DMSO in assay buffer. Data was analysed using curve-fitting software (GraphPad Prism version 3.00 for Windows, GraphPad Software, San Diego Calif. USA) to determine IC50 values (concentration of test compound which inhibits kinase activity by 50%).

The structures appear in SMILES notation. pIC50: −log10 of the molar value.

T2 sequence (Q96GD4 whole entry): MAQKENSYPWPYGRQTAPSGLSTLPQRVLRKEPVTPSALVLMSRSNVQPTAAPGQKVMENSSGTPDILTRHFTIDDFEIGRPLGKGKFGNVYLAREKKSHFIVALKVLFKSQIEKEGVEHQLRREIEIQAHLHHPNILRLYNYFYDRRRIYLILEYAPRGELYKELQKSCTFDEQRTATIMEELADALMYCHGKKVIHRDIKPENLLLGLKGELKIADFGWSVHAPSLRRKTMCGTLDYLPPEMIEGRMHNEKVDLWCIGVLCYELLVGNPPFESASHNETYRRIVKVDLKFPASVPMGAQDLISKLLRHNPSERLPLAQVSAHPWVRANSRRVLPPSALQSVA
Chain of EGF-R (P00533 25-1210, species assumed): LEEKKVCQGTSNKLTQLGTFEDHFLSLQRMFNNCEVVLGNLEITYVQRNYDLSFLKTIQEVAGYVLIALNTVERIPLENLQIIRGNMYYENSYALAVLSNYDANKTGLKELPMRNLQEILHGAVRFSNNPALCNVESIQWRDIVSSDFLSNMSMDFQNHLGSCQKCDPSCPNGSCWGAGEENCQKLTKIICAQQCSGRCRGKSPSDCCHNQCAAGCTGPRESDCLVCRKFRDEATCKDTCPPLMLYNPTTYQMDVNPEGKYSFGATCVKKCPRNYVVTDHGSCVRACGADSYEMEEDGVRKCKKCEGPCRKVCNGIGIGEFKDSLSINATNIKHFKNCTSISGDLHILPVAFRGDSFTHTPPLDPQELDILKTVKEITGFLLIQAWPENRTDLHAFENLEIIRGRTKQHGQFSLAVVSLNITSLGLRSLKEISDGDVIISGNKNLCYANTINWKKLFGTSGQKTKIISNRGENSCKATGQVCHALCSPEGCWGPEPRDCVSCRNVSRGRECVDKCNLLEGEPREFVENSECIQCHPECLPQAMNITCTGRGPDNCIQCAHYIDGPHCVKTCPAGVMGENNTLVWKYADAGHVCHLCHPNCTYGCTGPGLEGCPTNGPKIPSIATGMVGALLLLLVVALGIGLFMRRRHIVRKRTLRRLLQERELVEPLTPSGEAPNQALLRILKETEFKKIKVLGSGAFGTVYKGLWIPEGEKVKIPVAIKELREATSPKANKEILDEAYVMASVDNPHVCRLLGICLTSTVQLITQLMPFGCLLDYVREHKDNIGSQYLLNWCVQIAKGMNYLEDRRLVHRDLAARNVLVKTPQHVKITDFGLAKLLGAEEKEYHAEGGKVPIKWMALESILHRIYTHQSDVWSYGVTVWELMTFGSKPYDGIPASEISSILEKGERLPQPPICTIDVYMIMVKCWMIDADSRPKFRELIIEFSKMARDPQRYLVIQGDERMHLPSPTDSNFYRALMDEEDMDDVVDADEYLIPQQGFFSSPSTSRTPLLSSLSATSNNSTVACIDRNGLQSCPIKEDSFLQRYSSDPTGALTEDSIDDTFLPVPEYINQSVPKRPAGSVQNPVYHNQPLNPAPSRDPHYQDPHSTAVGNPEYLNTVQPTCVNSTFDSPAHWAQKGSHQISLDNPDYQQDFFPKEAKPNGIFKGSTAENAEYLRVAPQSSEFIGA
Chain of PKC-δ (Q05655 whole entry): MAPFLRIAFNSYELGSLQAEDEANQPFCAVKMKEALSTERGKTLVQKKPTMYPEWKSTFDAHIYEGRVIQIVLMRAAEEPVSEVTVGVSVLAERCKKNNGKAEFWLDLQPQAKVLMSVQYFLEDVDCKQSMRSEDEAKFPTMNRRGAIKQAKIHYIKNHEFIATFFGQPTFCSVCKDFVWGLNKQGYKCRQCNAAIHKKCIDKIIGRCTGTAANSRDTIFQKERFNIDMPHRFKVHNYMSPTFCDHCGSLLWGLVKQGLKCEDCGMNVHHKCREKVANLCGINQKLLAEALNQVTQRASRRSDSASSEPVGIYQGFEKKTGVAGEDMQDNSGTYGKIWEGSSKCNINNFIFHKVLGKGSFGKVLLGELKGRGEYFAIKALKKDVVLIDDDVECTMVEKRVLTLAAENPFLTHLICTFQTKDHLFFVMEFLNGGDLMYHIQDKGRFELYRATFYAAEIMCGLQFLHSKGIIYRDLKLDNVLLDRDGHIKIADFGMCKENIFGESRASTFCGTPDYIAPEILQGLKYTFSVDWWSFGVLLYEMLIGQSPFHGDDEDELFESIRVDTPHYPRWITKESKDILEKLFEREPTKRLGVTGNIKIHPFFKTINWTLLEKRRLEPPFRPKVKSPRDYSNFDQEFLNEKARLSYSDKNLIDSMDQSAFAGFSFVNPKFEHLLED
Chain of CDK7/cyclin H (P50613 whole entry): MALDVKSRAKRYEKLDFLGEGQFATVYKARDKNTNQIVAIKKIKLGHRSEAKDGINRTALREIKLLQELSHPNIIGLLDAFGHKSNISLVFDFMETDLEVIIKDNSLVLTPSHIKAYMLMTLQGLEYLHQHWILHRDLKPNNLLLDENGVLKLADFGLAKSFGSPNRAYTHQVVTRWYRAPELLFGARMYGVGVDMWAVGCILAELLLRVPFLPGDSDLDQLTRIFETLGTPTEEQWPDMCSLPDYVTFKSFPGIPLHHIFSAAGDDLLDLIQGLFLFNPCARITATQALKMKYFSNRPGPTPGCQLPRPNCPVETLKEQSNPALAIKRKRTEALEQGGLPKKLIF
Chain of CDK7/cyclin H (P51946 whole entry partner): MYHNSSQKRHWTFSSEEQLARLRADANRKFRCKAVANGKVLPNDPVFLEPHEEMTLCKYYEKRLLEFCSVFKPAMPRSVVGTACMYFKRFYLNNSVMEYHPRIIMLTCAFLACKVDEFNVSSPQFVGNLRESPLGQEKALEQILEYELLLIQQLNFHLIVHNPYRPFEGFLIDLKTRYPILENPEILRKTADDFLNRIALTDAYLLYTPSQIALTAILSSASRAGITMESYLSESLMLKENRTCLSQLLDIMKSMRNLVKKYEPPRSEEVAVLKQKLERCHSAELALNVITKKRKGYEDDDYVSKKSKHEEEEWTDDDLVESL

As for `FC(F)C(F)(F)Oc1cccc(Nc2nccc(-c3c[nH]c4ccccc34)n2)c1` [[4-(1H-indol-3-yl)-pyrimidin-2-yl]-[3-(1,1,2,2-tetrafluoro-ethoxy)-phenyl]-amine], on PKC-α, the “kinase inhibition PKC-α” value is given as “shown to inhibit”. For the same compound, the “kinase inhibition PKC-δ” value on PKC-δ is reported as “shown to inhibit”. At EGF-R, the “kinase inhibition EGF-R” value is listed as “shown to inhibit”.

Turning to `COc1ccc2c(-c3ccnc(Nc4ccc(N5CCN(C(C)=O)CC5)cc4)n3)c[nH]c2c1` [Compound 24], the pIC50 is 6.24 in the assay on A2780, 6.68 on aurora-A and 6.14 with Mia-PaCa-2.

In the case of `CC(=O)N1CCN(c2ccc(Nc3nccc(-c4c[nH]c5ccccc45)n3)cc2C)CC1` [Compound 27, 4-(1H-indol-3-yl)-N-[(4-acetylpiperazin-1-yl)-3-methylphenyl]pyrimidin-2-amine], the pIC50 at aurora-B was 6.44; at aurora-A, 6.56.

Turning to `c1ccc(CN2CCN(c3ccc(Nc4nccc(-c5c[nH]c6ccccc56)n4)cc3)CC2)cc1` [Compound 8, 4-(1H-indol-3-yl)-N-(4-benzylpiperazin-1-ylphenyl)pyrimidin-2-amine], the pIC50 at aurora-B was 5.85; on CDK7/cyclin H it was 5.22; in the assay on A2780, 5.27; at Flt-3, 7.10; with Mia-PaCa-2, 5.26.

On to `COc1cccc2c(-c3ccnc(Nc4ccc(N5CCN(C(C)=O)CC5)cc4)n3)c[nH]c12` [Compound 21, 4-(7-methoxy-1H-indol-3-yl)-N-(4-acetylpiperazin-1-ylphenyl)pyrimidin-2-amine], for which the figures for the pIC50 at aurora-A and in the assay with Mia-PaCa-2 were 6.63 and 5.98, respectively.

On to `CC(=O)N1CCN(c2ccc(Nc3nccc(-c4c[nH]c5cc(F)ccc45)n3)cc2)CC1` [Compound 26], for which the pIC50 on aurora-B is 6.76; at aurora-A it was 6.71.

For the compound `Cc1cc(Nc2nccc(-c3c[nH]c4ccccc34)n2)ccc1N1CCSCC1` [Compound 28, 4-(1H-indol-3-yl)-N-(3-methyl-4-thiomorpholin-4-ylphenyl)pyrimidin-2-amine], the results for the pIC50 at aurora-B and on aurora-A were 6.20 and 6.07, respectively.

On to `Cc1cc(N2CCOCC2)ccc1Nc1nccc(-c2c[nH]c3ccccc23)n1` [Compound 11, 4-(1H-indol-3-yl)-N-(2-methyl-4-morpholin-4-ylphenyl)pyrimidin-2-amine], for which the pIC50 is 6.48 on CDK2/cyclin E, 5.33 in the assay on A2780, 6.14 at Flt-3 and 5.17 with Mia-PaCa-2.

The record behind these values is patent publication US20090318446A1, “4-(1H-Indol-3-yl)-Pyrimidin-2-Ylamine Derivatives and Their Use in Therapy” (Cyclacel Limited, priority 2005, published 2009).
